{
  "source": "paper PMC10824269",
  "about": "(Journal of the American Chemical Society, 2021)",
  "molecular_target": "GsTyDC/DDC (Gloriosa superba, UniProt A0A7D5Q853)",
  "type": "cell-based",
  "conditions": "leaves of N. benthamiana",
  "data": [
    {"smiles": "N[C@@H](Cc1ccc(O)c(O)c1)C(=O)O", "note": "[L-DOPA]", "values": [
      {"measurement": "LC-MS, transient expression in N. benthamiana", "value": "GsTyDC/DDC is capable of acting on act on either L-Tyr or L-DOPA (Figure S15)"}
    ]}
  ]
}
